{"source": "patent US9771343B2", "about": "“2-alkyl-or-aryl-substituted tanshinone derivatives, and preparation method and application thereof” (Hangzhou Bensheng Pharmaceutical Co., Ltd., priority 2011, dated 2017)", "key": {"[1]": {"system": "RPMI8226 (multiple myeloma)", "test": "MTT cell growth inhibition, RPMI8226 multiple myeloma cells, 72 h", "format": "cell-based, human", "settings": "RPMI 8226, 72 h", "protocol": "(§1) The standard sample of tanshinone I (TA) and the 2-alkyl- or 2-aromatic-substituted tanshinone I derivatives of the present invention are sufficiently dissolved in dimethylsulfoxide to produce a stock solution of 10 mg/mL, which is refrigerated at 4° C. and stored in dark, and is diluted with cell culture medium to a desired concentration prior to experimentation.\n(§2) Obtaining 6000 well-growing leukemia cells and inoculating them into wells of a 96-well cell culture plate. The culture medium is the RPMI-1640 cell culture medium containing 10% fetal bovine serum. After adding on the second day the 2-alkyl- or 2-aromatic-substituted tanshinone I derivatives of different concentrations and mixing uniformly, placing the plate in a carbon dioxide cell incubator (5% CO2) at 37° C. and incubated for 72 hours. Then the viable cell concentration is determined by MTT method. In this experiment, the cell viability in control group (not treated with any compound) is set as 100%, and the cell viability (%) after treatment by the compounds and the half maximum inhibitory concentration for the leukemia cell at 72 hours (IC50 value of 72 hours, μg/mL) are calculated."}, "Hep G2 cells": {"system": "Hep G2 cells", "settings": "in vitro, literature report; cited from earlier work"}, "[2]": {"system": "PANC-1 (pancreatic cancer)", "test": "MTT cell growth inhibition, PANC-1 cells, 72 h", "format": "cell-based, human", "settings": "PANC-1, 72 h", "protocol": "as §1, with “with a” for “with”, “to the” for “to a”\n(§3) Obtaining 6000 well-growing human solid tumor cells and inoculating them into wells of a 96-well cell culture plate. The culture medium is DMEM High Glucose cell culture medium containing 10% fetal bovine serum. The plate is placed in a carbon dioxide cell incubator (5% CO2) at 37° C. and incubated for 24 hours. After adding the 2-alkyl- or 2-aromatic-substituted tanshinone I derivatives of different concentrations and mixing uniformly, the plate is placed in a carbon dioxide cell incubator (5% CO2) at 37° C. and incubated for 72 hours. Then the viable cell concentration is determined by MTT method. In this experiment, the cell viability in control group (not treated with any compound) is set as 100%, and the cell viability (%) after treatment by the compounds and the half maximum inhibitory concentration for the leukemia cell at 72 hours (IC50 value of 72 hours, μg/mL) are calculated."}, "[3]": {"system": "MGC 803 (human gastric cancer cell)", "test": "MTT cell growth inhibition, MGC 803 cells, 72 h", "format": "cell-based", "settings": "MGC-803, 72 h", "protocol": "as §1, with “with a” for “with”, “to the” for “to a”\nas §3"}, "[4]": {"system": "U87 MG (malignant glioma cell)", "test": "MTT cell growth inhibition, U87 MG cells, 72 h", "format": "cell-based, human", "settings": "U87-MG, 72 h", "protocol": "as §1, with “with a” for “with”, “to the” for “to a”\nas §3"}, "[5]": {"system": "Becap37 (human breast cancer cell)", "test": "MTT cell growth inhibition, Becap37 cells, 72 h", "format": "cell-based", "settings": "Becap-37, 72 h", "protocol": "as §1, with “with a” for “with”, “to the” for “to a”\nas §3"}, "[6]": {"system": "NB4 (acute promyelocytic leukemia, AML)", "test": "MTT cell growth inhibition, NB4 leukemia cells, 72 h", "format": "cell-based", "settings": "NB4, 72 h", "protocol": "as §1, §2"}, "[7]": {"system": "Hep G2 (human liver cancer cell)", "test": "MTT cell growth inhibition, Hep G2 cells, 72 h", "format": "cell-based", "settings": "Hep G2, 72 h", "protocol": "as §1, with “with a” for “with”, “to the” for “to a”\nas §3"}, "[8]": {"system": "K562/adr (drug-resistant, chronic myeloid leukemia, CML)", "test": "MTT cell growth inhibition, K562/adr leukemia cells, 72 h", "format": "cell-based", "settings": "K562/ADR", "protocol": "as §1, §2"}, "[9]": {"system": "Jurkat (acute lymphoblastic leukemia, ALL)", "test": "MTT cell growth inhibition, Jurkat leukemia cells, 72 h", "format": "cell-based", "settings": "72 h", "protocol": "as §1, §2"}, "[10]": {"system": "Hela (human cervical cancer cell)", "test": "MTT cell growth inhibition, Hela cells, 72 h", "format": "cell-based", "settings": "Hela, 72 h", "protocol": "as §1, with “with a” for “with”, “to the” for “to a”\nas §3"}, "[11]": {"system": "H9 (acute lymphoblastic leukemia, ALL)", "test": "MTT cell growth inhibition, H9 leukemia cells, 72 h", "format": "cell-based", "settings": "H9, 72 h", "protocol": "as §1, §2"}, "[12]": {"system": "CNE (nasopharyngeal carcinoma cell)", "test": "MTT cell growth inhibition, CNE cells, 72 h", "format": "cell-based, human", "settings": "CNE, 72 h", "protocol": "as §1, with “with a” for “with”, “to the” for “to a”\nas §3"}, "A549 (human lung cancer)": {"system": "A549 (human lung cancer)", "test": "MTT cell growth inhibition, A549 cells, 72 h", "format": "cell-based", "settings": "A549, 72 h", "protocol": "as §1, with “with a” for “with”, “to the” for “to a”\nas §3"}, "[13]": {"system": "CaES-17 (esophageal cancer cell)", "test": "MTT cell growth inhibition, CaES-17 cells, 72 h", "format": "cell-based, human", "settings": "CaEs-17, 72 h", "protocol": "as §1, with “with a” for “with”, “to the” for “to a”\nas §3"}, "[14]": {"settings": "background statement; cited from earlier work"}, "MG63 (osteosarcoma)": {"system": "MG63 (osteosarcoma)", "test": "MTT cell growth inhibition, MG63 cells, 72 h", "format": "cell-based, human", "settings": "MG-63, 72 h", "protocol": "as §1, with “with a” for “with”, “to the” for “to a”\nas §3"}, "tumor-bearing nude mice": {"system": "tumor-bearing nude mice", "settings": "literature report; cited from earlier work"}, "[15]": {"system": "RKO (human colon adenocarcinoma cell)", "test": "MTT cell growth inhibition, RKO cells, 72 h", "format": "cell-based", "settings": "RKO, 72 h", "protocol": "as §1, with “with a” for “with”, “to the” for “to a”\nas §3"}, "[16]": {"system": "SGC-7901 human gastric adenocarcinoma cells", "settings": "concentration dependent within a certain range, literature report; cited from earlier work"}, "[17]": {"settings": "background statement; cited from earlier work", "remark": "listed apart in the source"}, "PC-3 (prostate cancer)": {"system": "PC-3 (prostate cancer)", "test": "MTT cell growth inhibition, PC-3 cells, 72 h", "format": "cell-based, human", "settings": "PC-3, 72 h", "protocol": "as §1, with “with a” for “with”, “to the” for “to a”\nas §3"}, "[18]": {"system": "Kasumi-1 (acute myeloid leukemia M2 type, AML-M2)", "test": "MTT cell growth inhibition, Kasumi-1 leukemia cells, 72 h", "format": "cell-based", "settings": "Kasumi-1, 72 h", "protocol": "as §1, §2"}, "[19]": {"system": "Hep-2 (laryngeal carcinoma)", "test": "MTT cell growth inhibition, Hep-2 cells, 72 h", "format": "cell-based, human", "settings": "Hep-2, 72 h", "protocol": "as §1, with “with a” for “with”, “to the” for “to a”\nas §3"}, "[20]": {"system": "SK-OV-3 (ovarian cancer cell)", "test": "MTT cell growth inhibition, SK-OV-3 cells, 72 h", "format": "cell-based, human", "settings": "SK-OV-3, 72 h", "protocol": "as §1, with “with a” for “with”, “to the” for “to a”\nas §3"}}}
{"smiles": "Cc1coc2c1C(=O)C(=O)c1c-2ccc2c(C)cccc12", "note": "[TA, 1,6-dimethyl-phenanthreno [1,2-b]furan-10,11-diketone, reference compound]", "values": [{"measurement": "IC50", "setting": "[1]", "value": 0.96, "unit": "mg/L"}, {"measurement": "IC90", "setting": "[1]", "value": 10.86, "unit": "mg/L"}, {"measurement": "effect on proliferation of Hep G2 cells", "setting": "Hep G2 cells", "value": "can inhibit the proliferation of Hep G2 cells"}, {"measurement": "IC50", "setting": "[2]", "value": 2.7, "unit": "mg/L"}, {"measurement": "IC90", "setting": "[2]", "value": ">16", "unit": "mg/L"}, {"measurement": "IC50", "setting": "[3]", "value": 1.62, "unit": "mg/L"}, {"measurement": "IC90", "setting": "[3]", "value": 9.26, "unit": "mg/L"}, {"measurement": "IC50", "setting": "[4]", "value": 6.36, "unit": "mg/L"}, {"measurement": "IC90", "setting": "[4]", "value": 14.63, "unit": "mg/L"}, {"measurement": "IC50", "setting": "[5]", "value": 3.03, "unit": "mg/L"}, {"measurement": "IC90", "setting": "[5]", "value": ">16", "unit": "mg/L"}, {"measurement": "IC50", "setting": "[6]", "value": 0.98, "unit": "mg/L"}, {"measurement": "IC90", "setting": "[6]", "value": 2.5, "unit": "mg/L"}, {"measurement": "IC50", "setting": "[7]", "value": 2.19, "unit": "mg/L"}, {"measurement": "IC90", "setting": "[7]", "value": 22.13, "unit": "mg/L"}, {"measurement": "IC50", "setting": "[8]", "value": 0.88, "unit": "mg/L"}, {"measurement": "IC90", "setting": "[8]", "value": 4.17, "unit": "mg/L"}, {"measurement": "IC50", "setting": "[9]", "value": 1.74, "unit": "mg/L"}, {"measurement": "IC90", "setting": "[9]", "value": 8.42, "unit": "mg/L"}, {"measurement": "IC50", "setting": "[10]", "value": 4, "unit": "mg/L"}, {"measurement": "IC90", "setting": "[10]", "value": ">16", "unit": "mg/L"}, {"measurement": "IC50", "setting": "[11]", "value": 3.5, "unit": "mg/L"}, {"measurement": "IC90", "setting": "[11]", "value": 13.06, "unit": "mg/L"}, {"measurement": "IC50", "setting": "[12]", "value": 7.4, "unit": "mg/L"}, {"measurement": "IC90", "setting": "[12]", "value": ">16", "unit": "mg/L"}, {"measurement": "IC50", "setting": "A549 (human lung cancer)", "value": 4.03, "unit": "mg/L"}, {"measurement": "IC90", "setting": "A549 (human lung cancer)", "value": 17.29, "unit": "mg/L"}, {"measurement": "IC50", "setting": "[13]", "value": 3.18, "unit": "mg/L"}, {"measurement": "IC90", "setting": "[13]", "value": 16.00, "unit": "mg/L"}, {"measurement": "in vivo bioavailability", "setting": "[14]", "value": "low in vivo bioavailability"}, {"measurement": "IC50", "setting": "MG63 (osteosarcoma)", "value": 0.96, "unit": "mg/L"}, {"measurement": "IC90", "setting": "MG63 (osteosarcoma)", "value": ">16", "unit": "mg/L"}, {"measurement": "effect on tumor growth in tumor-bearing nude mice", "setting": "tumor-bearing nude mice", "value": "can inhibit the tumor growth in the mice"}, {"measurement": "IC50", "setting": "[15]", "value": 1.83, "unit": "mg/L"}, {"measurement": "IC90", "setting": "[15]", "value": ">16", "unit": "mg/L"}, {"measurement": "effect on growth of SGC-7901 cells cultured in vitro", "setting": "[16]", "value": "significant inhibitory effect"}, {"measurement": "solubility in water", "setting": "[17]", "value": "poor solubility in water"}, {"measurement": "IC50", "setting": "PC-3 (prostate cancer)", "value": 6.63, "unit": "mg/L"}, {"measurement": "IC90", "setting": "PC-3 (prostate cancer)", "value": 10.57, "unit": "mg/L"}, {"measurement": "IC50", "setting": "[18]", "value": 0.99, "unit": "mg/L"}, {"measurement": "IC90", "setting": "[18]", "value": 3.62, "unit": "mg/L"}, {"measurement": "IC50", "setting": "[19]", "value": 3.15, "unit": "mg/L"}, {"measurement": "IC90", "setting": "[19]", "value": ">16", "unit": "mg/L"}, {"measurement": "IC50", "setting": "[20]", "value": ">16", "unit": "mg/L"}, {"measurement": "IC90", "setting": "[20]", "value": ">16", "unit": "mg/L"}]}
